Consider 5 molecules from PMC3912015, “Synthetic Multivalent Antifungal Peptides Effective against Fungi” (PLoS ONE, 2014).

Values after ≈ are worked out from the molar mass of the structure shown. Where two headings read alike, the source gives them in different places. Bridge positions count the residues as written; N and C are the ends. Ends that are not written are not given here. Peptide text beside a SMILES is read from it. I, II: the chains in the order shown.

In data set [1] the test system is C. albicans ATCC10231. The data set is described as follows: microbe, parasite or virus in culture. The format is cell-based. The conditions noted are these: ATCC10231, 48 h. How it is done: (§1) The yeast strains were cultivated and suspended in Sabouraud’s Dextrose (SD) broth diluted to one sixth at a starting OD600 = ∼0.08 in a flat-bottomed microtitre plate. A serial dilution of peptide in the same broth was mixed with the inoculum to give a final peptide concentration of 0.4–22 µM. The antifungal activity was assessed by monitoring the OD600 in cycles of 30 minutes and an orbital shaking at 100 rpm using an Infinite M200 microplate reader (Tecan Group Ltd., Switzerland) for 24/48 h at 37°C. Cultures without peptides were used as positive controls and broth alone or with 22 µM peptide served as negative controls. The minimum concentration required for complete inhibition was assessed by both visible observations as well as by measuring the OD600 and taken as the MIC. Each experiment was repeated in triplicates. For studying the effects of metal ions, SD broth was adjusted with appropriate concentrations of salts to yield a final concentration of 100 and 135 mM for NaCl and KCl and 0.5–2 mM for CaCl2 and MgCl2. MIC determinations were carried out as described above. C. albicans ATCC10231 cells and salts in broth were taken as a positive control. Salts alone (NaCl, KCl, and CaCl2 and MgCl2) in broth or with 22 µM peptide served as a negative control. The effect of 5% human serum on the activities of B4010 against two C. albicans clinical isolates was determined. The human male serum was centrifuged at 13,000 rpm for 10 mins in order to remove the lipids and the supernatant was collected. The MIC values against clinical isolates of C. albicans 2672R and C. albicans 1976R were determined both in standard medium (SD broth) as well as in standard medium containing 5% serum supernatant as before.

The test system of data set [2] is C. albicans ATCC2091. The data set is described as follows: microbe, parasite or virus in culture. It is filed as cell-based. The conditions noted are these: ATCC2091, 48 h. How it is done: as §1
Data set [3] deals with C. albicans ATCC24433. The data set is described as follows: microbe, parasite or virus in culture. The format is cell-based. The conditions noted are these: ATCC24433, 48 h. How it is done: as §1
In data set [4] the test system is C. albicans DF1976R. The data set is described as follows: microbe, parasite or virus in culture. The format is cell-based. As to conditions: DF1976R, 48 h. How it is done:
as §1

Data set [5] concerns C. albicans DF2672R. The data set is described as follows: microbe, parasite or virus in culture. The format is cell-based. The conditions noted are these: DF2672R, 48 h. The method, then: as §1
Data set [6] deals with F. solani ATCC36031. The data set is described as follows: microbe, parasite or virus in culture. It is filed as cell-based. The conditions noted are these: ATCC36031, 48 h.
Data set [7] is classed as biochemical. How it is done: Small unilamellar vesicles (SUVs) were prepared using PC/PE/PI or PS lipids (5∶2.5∶2.5) containing 15 wt% ergosterol or PC/Cholesterol (10∶1). For the preparation of PC/PE/PI or PS/Erg SUV, the lipids were dissolved in chloroform/methanol (2∶1, v/v) in a glass tube. Ergosterol was dissolved in same solvent and added to lipid mixture to make final ergosterol content of 15 wt%. The Lipid-ergosterol mixture was dried using nitrogen gas to form lipid layer. The film was hydrated in a buffer containing 20 mM PBS (pH 7), vortexed and sonicated. Each cycle of sonication (5 sec, 40°C) was followed by freezing in liquid nitrogen and thawing on a water bath kept at 37°C. The procedure was repeated 5–6 times until an optically clear dispersion appeared. The SUV was divided into two parts. To the first part 50 mM calcein was added and incubated for 1 h. The excess calcein was removed by injecting 100 µL of the calcien-loaded SUV’s into a Ultrahydrogel™ 250 (7.8 mm × 300 mm) column equilibrated with 20 mM PBS (pH 7.0) and eluted isochratically at a flow rate of 1 mL/min for 1.5 column volumes. The calcein-loaded liposomes were mixed with calcein-free liposome (1∶1) to adjust final liposome concentration. Peptide concentration was added to obtain 1∶30 or 1∶15 peptide:liposome ratio. Changes in the fluorescence signal after addition of peptide or Triton X-100 was measured on a PTI spectrofluorometer, using an excitation wavelength of 480 nm and emission wavelength of 512 nm. The Percentage calcein released at each time point was calculated using the equation, [drawing 1]
Where A0 is the observed fluorescence intensity upon addition of peptides, Amin is the average intensity at the baseline (before peptide addition), Amax is the average intensity at the saturation phase after adding 1% Triton X-100. Similar protocol was followed for the preparation of PC/Cholesterol SUVs.

Data set [8] can be described thus: in vitro. It is filed as cell-based, human. The conditions noted are these: human. The method, then: (§2) Immortalized normal human conjunctival epithelial cells (IOBANHC) were a gift from Yolanda Diebold at the University of Valladolid, Spain [31]. IOBA-NHC cells were cultured under standard conditions (humidified atmosphere of 5% CO2 at 37°C) in DMEM/F12 supplemented with 1 µg/ml bovine pancreas insulin, 2 ng/ml mouse epidermal growth factor, 0.1 µg/ml cholera toxin, 5 µg/ml hydrocortisone, 10% fetal bovine serum (FBS), 50 UI/ml penicillin, and 50 UI/ml streptomycin. Cells from passages 50–80 were used in all experiments. Every day, normal culture development was observed by phase-contrast microscopy. Cells were removed by gentle trypsin incubation at confluence and counted. They were seeded into 96 well culture plates (Corning, Schiphol-Rijk, The Netherlands) for microtitration analysis of flow cytotoxicity assay (∼10,000 cells/well). Cultures were kept at 37°C for 24 h. Subconfluent cells (culture surface covering nearly 70%) were then exposed to various peptide concentrations (0.22–225 µM). Cytotoxicity was measured periodically using MultiTox-Fluor Multiplex assay kit (Promega, WI, USA) by measuring the AFC fluorescence (λex = 485 and λem = 520 nm). We report the cell viability after 24 h incubation of the cells with the peptides since there was no detectable toxicity even after 8 h of incubation.

Data set [9] has as its system human conjunctival epithelial cells (IOBA-NHC). The data set is described as follows: in vitro. The format is cell-based. As to conditions: 24 h. The method, then:
as §2

Turning to `CC(C)[C@H](NC(=O)[C@H](CCCCN)NC(=O)[C@H](CCCNC(=N)N)NC(=O)CNC(=O)[C@@H](N)CCCNC(=N)N)C(=O)N[C@H](C(=O)N[C@@H](CCCNC(=N)N)C(=O)N[C@@H](CCCNC(=N)N)C(=O)NCCCC[C@H](NC(=O)[C@H](CCCNC(=N)N)NC(=O)[C@H](CCCNC(=N)N)NC(=O)[C@@H](NC(=O)[C@@H](NC(=O)[C@H](CCCCN)NC(=O)[C@H](CCCNC(=N)N)NC(=O)CNC(=O)[C@@H](N)CCCNC(=N)N)C(C)C)C(C)C)C(=O)N[C@@H](CCCCN)C(=O)O)C(C)C` [B2088] (I: H-RGRKVVRRKK-OH / II: H-RGRKVVRR; amide I:9-II:C; N-terminus and C-terminus assumed), the MIC in data set [1] (read-out: MIC) amounted to 5.5 µM (≈ 12.6 µg/mL); in data set [2] (read-out: MIC), 1.4 µM (≈ 3.21 µg/mL); in data set [3] (read-out: MIC), 2.7 µM (≈ 6.19 µg/mL); in [4] (read-out: MIC), 0.8 µM (≈ 1.83 µg/mL); in [5] (read-out: MIC), 0.8 µM (≈ 1.83 µg/mL); in data set [6], 10.9 µM (≈ 25 µg/mL). In addition, in data set [7], the “calcein release relative to B4010” value is given as “decreased calcein release”.

As to `CC(C)[C@H](NC(=O)[C@H](CCCCN)NC(=O)[C@H](CCCNC(=N)N)NC(=O)CNC(=O)[C@H](C)N)C(=O)N[C@H](C(=O)N[C@@H](CCCNC(=N)N)C(=O)N[C@@H](CCCNC(=N)N)C(=O)NCCCC[C@H](NC(=O)[C@H](CCCNC(=N)N)NC(=O)[C@H](CCCNC(=N)N)NC(=O)[C@@H](NC(=O)[C@@H](NC(=O)[C@H](CCCCN)NC(=O)[C@H](CCCNC(=N)N)NC(=O)CNC(=O)[C@H](C)N)C(C)C)C(C)C)C(=O)NCCCC[C@H](NC(=O)[C@H](CCCCNC(=O)[C@H](CCCNC(=N)N)NC(=O)[C@H](CCCNC(=N)N)NC(=O)[C@@H](NC(=O)[C@@H](NC(=O)[C@H](CCCCN)NC(=O)[C@H](CCCNC(=N)N)NC(=O)CNC(=O)[C@H](C)N)C(C)C)C(C)C)NC(=O)[C@H](CCCNC(=N)N)NC(=O)[C@H](CCCNC(=N)N)NC(=O)[C@@H](NC(=O)[C@@H](NC(=O)[C@H](CCCCN)NC(=O)[C@H](CCCNC(=N)N)NC(=O)CNC(=O)[C@H](C)N)C(C)C)C(C)C)C(=O)N[C@@H](CCCCN)C(=O)O)C(C)C` [B4010_R1A] (I: H-AGRKVVRRKKK-OH / II: H-AGRKVVRRK / III: H-AGRKVVRR / IV: H-AGRKVVRR; amide I:9-IV:C, I:10-II:C, II:9-III:C; N-terminus and C-terminus assumed), the MIC was found to be 5.9 µM (≈ 24.9 µg/mL) in [1] (read-out: MIC in µM against Ca 10231); 1.5 µM (≈ 6.33 µg/mL) in [2] (read-out: MIC in µM against Ca 2091); 5.9 µM (≈ 24.9 µg/mL) in data set [3] (read-out: MIC in µM against Ca 24433); 0.75 µM (≈ 3.17 µg/mL) in data set [4] (read-out: MIC in µM against Ca DF1976R); 1.5 µM (≈ 6.33 µg/mL) in [5] (read-out: MIC in µM against Ca 2672R). This molecule returned a viability at 24 h, 237 µM in data set [8] of 67.6%. Besides, in [9], the concentration giving a half-maximal response (EC50) is above 237 µM.

`CC(C)[C@H](N)C(=O)N[C@@H](CCCNC(=N)N)C(=O)NCC(=O)N[C@@H](CCCNC(=N)N)C(=O)N[C@H](C(=O)N[C@@H](CCCNC(=N)N)C(=O)N[C@@H](CCCCN)C(=O)N[C@@H](CCCNC(=N)N)C(=O)NCCCC[C@H](NC(=O)[C@H](CCCNC(=N)N)NC(=O)[C@H](CCCCN)NC(=O)[C@H](CCCNC(=N)N)NC(=O)[C@@H](NC(=O)[C@H](CCCNC(=N)N)NC(=O)CNC(=O)[C@H](CCCNC(=N)N)NC(=O)[C@@H](N)C(C)C)C(C)C)C(=O)NCCCC[C@H](NC(=O)[C@H](CCCCNC(=O)[C@H](CCCNC(=N)N)NC(=O)[C@H](CCCCN)NC(=O)[C@H](CCCNC(=N)N)NC(=O)[C@@H](NC(=O)[C@H](CCCNC(=N)N)NC(=O)CNC(=O)[C@H](CCCNC(=N)N)NC(=O)[C@@H](N)C(C)C)C(C)C)NC(=O)[C@H](CCCNC(=N)N)NC(=O)[C@H](CCCCN)NC(=O)[C@H](CCCNC(=N)N)NC(=O)[C@@H](NC(=O)[C@H](CCCNC(=N)N)NC(=O)CNC(=O)[C@H](CCCNC(=N)N)NC(=O)[C@@H](N)C(C)C)C(C)C)C(=O)N[C@@H](CCCCN)C(=O)O)C(C)C` [Sc_B4010] (I: H-VRGRVRKRKKK-OH / II: H-VRGRVRKRK / III: H-VRGRVRKR / IV: H-VRGRVRKR; amide I:9-IV:C, I:10-II:C, II:9-III:C; N-terminus and C-terminus assumed): the MIC in data set [1] (read-out: MIC) is recorded as 5.6 µM (≈ 25.6 µg/mL); in data set [2] (read-out: MIC) it was 2.7 µM (≈ 12.3 µg/mL); in [3] (read-out: MIC) it was 5.6 µM (≈ 25.6 µg/mL); in data set [4] (read-out: MIC), 0.8 µM (≈ 3.65 µg/mL); in [5] (read-out: MIC), 0.8 µM (≈ 3.65 µg/mL). Moreover, the “calcein release relative to B4010” value in data set [7] is on record as “decreased calcein release”.

On to RGRKVVRRKK [Monomer], for which the values for the MIC in [1] (read-out: MIC), in data set [5] (read-out: MIC) and in data set [6] were 78 µM, 78 µM and above 78 µM, respectively.

On to RGRKVVRRKKRRVVKRGR [Linear Retrodimer], for which the MIC came to 22 µM in data set [1] (read-out: MIC); 11 µM in [2] (read-out: MIC); 5.5 µM in [3] (read-out: MIC); 2.7 µM in [4] (read-out: MIC); 2.7 µM in [5] (read-out: MIC).
